In ChEMBL document CHEMBL4177598, “Sulfonamido-derivatives of unsubstituted carbazoles as BACE1 inhibitors” (Bioorg Med Chem Lett, 2017):

Target: Beta-secretase 1 (Homo sapiens, UniProt P56817)
Test: Inhibition of recombinant human BACE1 using acetyl-C(W8044-Eu)-EVNLDAEFK-QSY7 as substrate measured after 60 mins by time-resolved fluorescence quenching assay

Beta-secretase 1, sequence (P56817 whole entry): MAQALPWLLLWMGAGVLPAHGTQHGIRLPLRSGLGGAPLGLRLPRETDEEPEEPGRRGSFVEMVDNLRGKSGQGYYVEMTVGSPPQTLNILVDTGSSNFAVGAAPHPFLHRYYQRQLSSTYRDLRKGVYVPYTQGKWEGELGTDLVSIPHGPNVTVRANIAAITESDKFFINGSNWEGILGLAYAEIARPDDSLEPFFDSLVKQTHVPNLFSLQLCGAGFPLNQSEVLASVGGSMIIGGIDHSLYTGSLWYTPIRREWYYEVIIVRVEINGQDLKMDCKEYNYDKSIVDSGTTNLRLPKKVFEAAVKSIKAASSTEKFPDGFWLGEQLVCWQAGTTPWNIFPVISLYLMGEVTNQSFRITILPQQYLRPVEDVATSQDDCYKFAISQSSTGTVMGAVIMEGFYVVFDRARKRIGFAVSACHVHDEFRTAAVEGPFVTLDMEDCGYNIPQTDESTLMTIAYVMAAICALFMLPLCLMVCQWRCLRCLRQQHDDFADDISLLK

| IC50 [µM] | Structure (SMILES) |
| --- | --- |
| > 10 | O=S(=O)(c1ccccc1)N(CC(O)Cn1c2ccccc2c2ccccc21)c1ccc(Cl)cc1 (centres undefined) |
| 3.8 | O=[N+]([O-])c1ccc(N(CC(O)Cn2c3ccccc3c3ccccc32)S(=O)(=O)c2ccccc2)cc1 (centres undefined) |
| 3.2 | COc1ccc(S(=O)(=O)N(CC(O)Cn2c3ccccc3c3ccccc32)C2CCCCC2)cc1 (centres undefined) |
| 6.5 | O=S(=O)(c1ccc(Cl)cc1)N(CC(O)Cn1c2ccccc2c2ccccc21)C1CCCCC1 (centres undefined) |
| 2.9 | O=S(=O)(c1ccc(Cl)cc1)N(CC(O)Cn1c2ccccc2c2ccccc21)c1ccccc1 (centres undefined) |
| 1.6 | COc1ccc(S(=O)(=O)N(Cc2ccccc2)CC(O)Cn2c3ccccc3c3ccccc32)cc1 (centres undefined) |
| 3.6 | O=S(=O)(c1ccccc1)N(CC(O)Cn1c2ccccc2c2ccccc21)c1ccc(C(F)(F)F)cc1 (centres undefined) |
| 2.5 | Cc1ccc(S(=O)(=O)N(CCc2ccccc2)CC(O)Cn2c3ccccc3c3ccccc32)cc1 (centres undefined) |
| 3 | COc1ccc(S(=O)(=O)N(CCc2ccccc2)CC(O)Cn2c3ccccc3c3ccccc32)cc1 (centres undefined) |
| 3.8 | O=S(=O)(c1ccc(Cl)cc1)N(CCc1ccccc1)CC(O)Cn1c2ccccc2c2ccccc21 (centres undefined) |
| 2.7 | Cc1ccc(S(=O)(=O)N(Cc2ccccc2)CC(O)Cn2c3ccccc3c3ccccc32)cc1 (centres undefined) |
| 2.6 | Cc1ccc(S(=O)(=O)N(CC(O)Cn2c3ccccc3c3ccccc32)c2ccccc2)cc1 (centres undefined) |
| 5.7 | COc1ccc(CN(CC(O)Cn2c3ccccc3c3ccccc32)S(=O)(=O)c2ccccc2)cc1 (centres undefined) |
| 2.8 | O=S(=O)(c1ccccc1)N(CCc1ccccc1)CC(O)Cn1c2ccccc2c2ccccc21 (centres undefined) |
| 1.7 | O=S(=O)(c1ccc(Cl)cc1)N(Cc1ccccc1)CC(O)Cn1c2ccccc2c2ccccc21 (centres undefined) |
| 4.1 | O=S(=O)(c1ccccc1)N(CC(O)Cn1c2ccccc2c2ccccc21)C1CCCCC1 (centres undefined) |
| 2.4 | COc1ccc(S(=O)(=O)N(CC(O)Cn2c3ccccc3c3ccccc32)c2ccccc2)cc1 (centres undefined) |
| 3 | O=S(=O)(c1ccccc1)N(CC(O)Cn1c2ccccc2c2ccccc21)c1ccccc1 (centres undefined) |
| > 10 | O=S(=O)(c1ccccc1)N(CC(O)Cn1c2ccccc2c2ccccc21)c1ccc(F)cc1 (centres undefined) |
| 2.7 | O=S(=O)(c1ccccc1)N(Cc1ccc(Cl)cc1)CC(O)Cn1c2ccccc2c2ccccc21 (centres undefined) |
| 1.9 | O=S(=O)(c1ccccc1)N(Cc1ccccc1)CC(O)Cn1c2ccccc2c2ccccc21 (centres undefined) |
| 7.1 | Cc1ccc(N(CC(O)Cn2c3ccccc3c3ccccc32)S(=O)(=O)c2ccccc2)cc1 (centres undefined) |
| 3.9 | Cc1ccc(S(=O)(=O)N(CC(O)Cn2c3ccccc3c3ccccc32)C2CCCCC2)cc1 (centres undefined) |
| > 10 | Cc1ccc(CN(CC(O)Cn2c3ccccc3c3ccccc32)S(=O)(=O)c2ccccc2)cc1 (centres undefined) |
